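Exposure lasted 48 hours, with cells grown in 96-well plates and compounds tested at five concentrations. At the GI50, growth is halved.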 The source made the active and inactive calls. Rule as the data show it: active = GI50 up to about 1.1 µM and inactive = higher.
Experiments:
Assay in all cases: growth of human tumour cells (NCI), 48 h
LOX IMVI = test system: LOX IMVI
MDA-N = test system: MDA-N
MOLT-4 = test system: MOLT-4
IGROV-1 = test system: IGROV-1
NCI-H460 = test system: NCI-H460
OVCAR-8 = test system: OVCAR-8
Hs-578T = test system: Hs-578T
CCRF-CEM = test system: CCRF-CEM
A498 = test system: A498
HCT-15 = test system: HCT-15
SNB-75 = test system: SNB-75
SR = test system: SR
MDA-MB-435 = test system: MDA-MB-435
U-251 = test system: U-251
CAKI-1 = test system: CAKI-1
ACHN = test system: ACHN
A549 = test system: A549
SF-539 = test system: SF-539
UACC-257 = test system: UACC-257
DU-145 = test system: DU-145

Row | SMILES | GI50 (LOX IMVI) | GI50 (MDA-N) | GI50 (MOLT-4) | GI50 (IGROV-1) | GI50 (NCI-H460) | GI50 (OVCAR-8) | GI50 (Hs-578T) | GI50 (CCRF-CEM) | GI50 (A498) | GI50 (HCT-15) [µM] | GI50 (SNB-75) | GI50 (SR) | GI50 (MDA-MB-435) | GI50 (U-251) | GI50 (CAKI-1) | GI50 (ACHN) | GI50 (A549) | GI50 (SF-539) | GI50 (UACC-257) | GI50 (DU-145)
1 | CSCCCNC(=O)c1csc(-c2csc(CCNC(=O)CNC(=O)OC(C)(C)C)n2)n1 | > 100 µM (inactive) | > 100 µM (inactive) | 40.7 µM (inactive) | > 100 µM (inactive) | > 100 µM (inactive) | > 100 µM (inactive) | > 100 µM (inactive) | 43.1 µM (inactive) | > 100 µM (inactive) | > 100 | > 100 µM (inactive) | > 100 µM (inactive) | > 100 µM (inactive) | > 100 µM (inactive) | > 100 µM (inactive) | > 100 µM (inactive) | > 100 µM (inactive) | > 100 µM (inactive) | > 100 µM (inactive) | > 100 µM (inactive)
2 | CCOC(=O)c1cc(-c2ccc(OC)c(OC)c2)c[nH]1 | > 10 µM (inactive) | > 10 µM (inactive) | > 10 µM (inactive) | > 10 µM (inactive) | > 10 µM (inactive) | > 10 µM (inactive) | > 10 µM (inactive) | > 10 µM (inactive) | > 10 µM (inactive) | > 10 | 5.08 µM (inactive) | > 10 µM (inactive) | > 10 µM (inactive) | > 10 µM (inactive) | > 10 µM (inactive) | > 10 µM (inactive) | > 10 µM (inactive) | > 10 µM (inactive) | > 10 µM (inactive) | > 10 µM (inactive)
3 | CC[N+](C)(CC)Cc1ccccc1[N+](=O)[O-] | > 100 µM (inactive) | > 100 µM (inactive) | > 100 µM (inactive) | > 100 µM (inactive) | > 100 µM (inactive) | 39.8 µM (inactive) | > 100 µM (inactive) | > 100 µM (inactive) | 41.2 µM (inactive) | > 100 | > 100 µM (inactive) | > 100 µM (inactive) | > 100 µM (inactive) | 53.7 µM (inactive) | > 100 µM (inactive) | > 100 µM (inactive) | > 100 µM (inactive) | > 100 µM (inactive) | > 100 µM (inactive) | > 100 µM (inactive)
4 | CCOC(=O)N1CC2(C(=O)OC)C=CC1C(C(=O)OC)C2 (stereo not given) | > 100 µM (inactive) | > 100 µM (inactive) | > 100 µM (inactive) | > 100 µM (inactive) | > 100 µM (inactive) | > 100 µM (inactive) | > 100 µM (inactive) | > 100 µM (inactive) | > 100 µM (inactive) | > 100 | > 100 µM (inactive) | > 100 µM (inactive) | > 100 µM (inactive) | > 100 µM (inactive) | > 100 µM (inactive) | > 100 µM (inactive) | > 100 µM (inactive) | > 100 µM (inactive) | > 100 µM (inactive) | > 100 µM (inactive)
5 | CC(=O)OCC1OC(Nn2c(=O)[nH]c3ccccc3c2=O)C(OC(C)=O)C(OC(C)=O)C1OC(C)=O (stereo not given) | > 100 µM (inactive) | > 100 µM (inactive) | 97.7 µM (inactive) | > 100 µM (inactive) | 27.2 µM (inactive) | > 100 µM (inactive) | > 100 µM (inactive) | 40.2 µM (inactive) | > 100 µM (inactive) | > 100 | > 100 µM (inactive) | > 100 µM (inactive) | > 100 µM (inactive) | > 100 µM (inactive) | > 100 µM (inactive) | > 100 µM (inactive) | > 100 µM (inactive) | > 100 µM (inactive) | 35.3 µM (inactive) | > 100 µM (inactive)
